Reference: patent US5198552A, “Indole derivative having antiviral, interferon-inducing and immunomodulatory effects” (priority 1991, dated 1993)
Values joined by “and” are separate entries in the source; they are usually repeats but may differ in a detail not shown here. Equal entries are not always repeated. “Also recorded” adds a separate entry of the source. Where two headings read alike, the source gives them in different places.

Legend:
influenza A/B viruses [1] = format: cell-based
influenza A/B viruses [2] = assay: Medicinal effect on experimental influenzal pneumonia of mice induced by influenza A/B viruses; format: in vivo; conditions: hydrochloride monohydrate
influenza viruses = assay: Virucidal action on influenza viruses
[3] = Maximum tolerable concentration for chick embryo fibroblasts; format: cell-based; conditions: chicken
[4] = Long-term per os toxicity, rats; format: in vivo; conditions: per os 100 to 125 mg/kg during 6 months
[5] = Long-term per os toxicity, guinea pigs; format: in vivo; conditions: per os 100 to 125 mg/kg over 3 months
[6] = Long-term per os toxicity, rabbits; format: in vivo; conditions: per os 50 mg/kg during 2 months
[7] = Long-term per os toxicity, dogs; format: in vivo; conditions: per os 25 mg/kg over 6 months
[8] = Localized irritant action in oral administration (hystological tests); format: in vivo
[9] = Allergizing effect, guinea pigs; format: in vivo; conditions: subcutaneous injections and repeated skin applications
[10] = Allergizing effect, rabbits; format: in vivo; conditions: subcutaneous injections and repeated skin applications
Salmonella typhimurium = assay: Mutagenic activity on Salmonella typhimurium; conditions: 50 to 1000 μm per disk
influenza A/B virus = assay: Clinical trial against influenza A/B virus infection; format: in vivo, human; conditions: hydrochloride monohydrate
Protocol: The clinical checking of the preparation was performed in comparison to control groups o patients which were taken a symptomatic treatment.

interferon [11] = format: cell-based, hen; conditions: 20 µg/ml
interferon [12] = assay: Interferon induction in mouse blood serum; format: in vivo, mice
[13] = tested on: influenza A virus (Bethezda) 63 (H2 N2), A (Aichi) (H3 N2); assay: Preventive action in mouse influenzal pneumonia; format: in vivo, mice; conditions: for The decrease of lethality: P <0.01; for Lethality: absolute animal number: dead/total
Protocol: Its preventive effect was studied on a mouse influenzal pneumonia induced by infecting the animals intranasally with influenza A virus (Bethezda) 63 (H2 N2), A (Aichi) (H3 N2) and on a generalized mouse herpes, induced by intranasal infection of them with herpes simplex virus from antigen-type I L2 -strain.
A single administration of the preparation per os in the dose of 30 mg/kg 24 hours prior to infection prevents the death of 40% of animals suffering from a generalized herpetic infection.

[14] = tested on: herpes simplex virus from antigen-type I L2 -strain; assay: Preventive action in generalized mouse herpes; design: species or system mice; conditions: in vivo
interferon [15] = assay: Interferon induction in human blood serum; format: in vivo
peritoneal macrophages = assay: Absorbing capacity of mouse peritoneal macrophages (neutral red); format: in vivo, mice; design: Absorbing Capacity, percent of control: concentration or dose not given beside the values
antibody-producing cells = assay: Antibody-producing cells in the spleen of mice immunized with sheep erythrocytes; format: in vivo; design: immune response against the control: concentration or dose not given beside the values
stem cells = assay: Inactivation of stem cells with allogenic lymphocytes (graft versus host, spleen endocolonies); format: in vivo, mice
[16] = Effect on thermal skin lesion; conditions: in vivo
lymphocytes = format: in vivo, human
[17] = Prolonged administration to animals; format: in vivo
[18] = clinical trials
[19] = Acute toxicity, single oral administration, mice; conditions: mouse, in vivo
[20] = patients with influenza virus infection
[21] = 31.2 mg/kg per os 24 and 6 hours before infecting
[22] = 62.5 mg/kg per os 24 and 6 hours before infecting
[23] = 125 mg/kg per os 24 and 6 hours before infecting
[24] = 1 day after single administration
[25] = 2 day after single administration
[26] = single 100 mg and 300 mg daily per os

## CCOC(=O)c1c(CSc2ccccc2)n(C)c2cc(Br)c(O)c(CN(C)C)c12.Cl.O [preparation of the invention, ethyl 6-bromo-5-hydroxy-4-dimethylaminomethyl-1-methyl-2-phenylthiomethylindole-3-carboxylate hydrochloride monohydrate]
Influenza A/B viruses [1]; hydrochloride monohydrate
  inhibition of influenza A/B virus reproduction / chemotherapeutical effect: shows a pronounced chemotherapeutical effect; also recorded: Inhibits the reproduction
Influenza A/B viruses [1]; single-stage infection, 5 μm/ml, reducing infectivity titer and suppressing plague-forming activity
  stage at which the virus-inhibiting effect is expressed: early stages of influenza viruses reproduction in cells: adsorption, penetration and probably deproteinization
Influenza A/B viruses [2]
  medicinal (chemotherapeutical) effect on influenzal pneumonia: shows a pronounced chemotherapeutical effect; also recorded: Exerts a medicinal effect
Influenza viruses
  virucidal action on influenza viruses: No virucidal action
[3]
  MNTC: 20 µg/mL
[4]
  pathological changes: did not cause any pathological changes
[5]
  pathological changes: did not cause any pathological changes
[6]
  pathological changes: did not cause any pathological changes
[7]
  pathological changes: did not cause any pathological changes
[8]
  localized irritant action: no localized irritant action
[9]
  allergizing action: did not exert an allergizing action
[10]
  allergizing action: did not exert an allergizing action
Salmonella typhimurium
  mutagenic activity: no mutagenic activity
Influenza A/B virus; human, in vivo, po
  therapeutical efficacy against influenza A/B virus infection: has the therapeutical effect on influenza A/B virus infections; also recorded: shortening the febrile period, intoxication and catarrhal conditions as well as by shortening the illness duration
Influenza A/B virus; [20]
  frequency of chronic disease exacerbations: considerably decreases the frequency of chronic disease exacerbations; also recorded: decreased considerably the frequency of chronic disease exacerbations
  postinfluenzal complications: prevents from post-influenzal complications; also recorded: prevented the development of postinfluenzal complications
Interferon [11]; 8 hours
  Interferon titer: 640-1280 U/ml
Interferon [11]; 24 hours
  maximum interferon titer: 2560 U/ml
Interferon [11]; by 48 hours
  Interferon titer: 320 U/ml
Interferon [12]; mice, repeated administering
  interferon induction on repeated administering: a depressed reactivity state condition occurs in the animals
Interferon [12]; per os, 62.5 mg/kg, after 16 h
  Interferon titer: 320-640 U/ml
Interferon [12]; per os, 62.5 mg/kg, after 24 h
  Interferon titer: 640 U/ml
Interferon [12]; per os, 62.5 mg/kg, after 48 h
  Interferon titer: 160 U/ml
Interferon [12]; per os, 62.5 mg/kg, after 72 h
  Interferon titer: 40 U/ml
Interferon [12]; per os, 125 mg/kg, after 16 h
  Interferon titer: 640 U/ml
Interferon [12]; per os, 125 mg/kg, after 24 h
  Interferon titer: 320-640 U/ml
Interferon [12]; per os, 125 mg/kg, after 48 h
  Interferon titer: 640 U/ml
Interferon [12]; per os, 125 mg/kg, after 72 h
  Interferon titer: 160 U/ml
Interferon [12]; per os, 250 mg/kg, after 16 h
  Interferon titer: 320-540 U/ml
Interferon [12]; per os, 250 mg/kg, after 24 h
  Interferon titer: 640-1280 U/ml
Interferon [12]; per os, 250 mg/kg, after 48 h
  Interferon titer: 320 U/ml
Interferon [12]; per os, 250 mg/kg, after 72 h
  Interferon titer: 160 U/ml
Interferon [12]; per os, 250 to 62.5 mg/kg, 16 hours, persisted up to 48 hours
  high interferon titers in mouse blood serum: 640 U/ml
[13]; [21]
  Lethality: 30%
  The decrease of lethality: 40%
  Lethality: absolute animal number: 12/40
[13]; 31.2 mg/kg to 125 mg/kg per os 24 and 6 hours before infecting
  lowering of lethality as compared to control: 40-50%
[13]; [22]
  Lethality: 20%
  The decrease of lethality: 50%
  Lethality: absolute animal number: 8/40
[13]; [23]
  Lethality: 20%
  The decrease of lethality: 50%
  Lethality: absolute animal number: 8/40
[14]
  prevention of death: 40%
[14]; hydrochloride monohydrate
  Lethality: 60% and 75%
  Lethality: absolute animal number: 12/20 and 15/20
  The decrease of lethality: 40% and 25%
Interferon [15]; 3-times administration (300 mg), all 12
  volunteers with interferon induction: 100%
Interferon [15]; 3 times per day (300 mg)
  Interferon titer: 160-320 U/ml
Interferon [15]; 3 times per day (300 mg), 12 men
  The number of positive reactions: 12
Interferon [15]; 6 times per day during 2 days (600 mg), 12 men
  The number of positive reactions: 12
Interferon [15]; during 2 days (600 mg)
  Interferon titer: 40-80 U/ml
Interferon [15]; increase in dose and duration of administration
  development of hyporeactivity on increase in dose and duration: development of hyporeactivity in human beings
Interferon [15]; single administration (100 mg)
  Interferon titer: 40-80 U/ml
Interferon [15]; single administration per day (100 mg), 13 men
  The number of positive reactions: 8
Interferon [15]; single per os 100 mg, 8 out of 13
  volunteers with interferon induction: 61.5%
Peritoneal macrophages; [24]
  Absorbing Capacity of Peritoneal Macrophages: 27.7 ± 3.5 mg/6 × 10^6 cells
  Absorbing Capacity, percent of control: 125 ± 17%
Peritoneal macrophages; [25]
  Absorbing Capacity of Peritoneal Macrophages: 33.6 ± 4.7 mg/6 × 10^6 cells
  Absorbing Capacity, percent of control: 147 ± 20.6%
Peritoneal macrophages; 3 day after single administration
  Absorbing Capacity of Peritoneal Macrophages: 37.4 ± 3.7 mg/6 × 10^6 cells
Peritoneal macrophages; by 2-3 days after a single administration, p<0.05
  absorbing capacity of macrophages: 164±13%
Peritoneal macrophages; in vivo
  stimulation of absorbing capacity of macrophages: stimulates the absorbing capacity of macrophages to a greater extent than administration of levamisole
Peritoneal macrophages; mouse, in vivo
  effect on counts of macrophages washed off the peritoneal cavity: no effect on counts of macrophages
antibody-producing cells; 7-17 day of tumor development, single (3 days prior to immunization) or 5-times daily
  immunopotentiating effect on tumor-carrier animals: immunopotentiating effect on tumor-carrier animals
antibody-producing cells; intact mice, a single use
  Antibody-producing cells in spleen (% of control): 246 ± 6.0%
antibody-producing cells; intact mice, during 3 days, daily
  Antibody-producing cells in spleen (% of control): 141 ± 13%
antibody-producing cells; intact mice, during 5 days, daily
  Antibody-producing cells in spleen (% of control): 192 ± 14.0%
antibody-producing cells; irradiated animals
  immunostimulating effect on irradiated animals: pronounced immunostimulating effect
antibody-producing cells; irradiated animals, administered 3 days prior to irradiation
  immune response against the control: 230%
antibody-producing cells; mice, intact and irradiated
  stimulation of antibody genesis, compared with reference standards: superior over reference standards--levamisole and a double-stranded RF2 phage RNA
antibody-producing cells; totally irradiated (2 Gr.), 5 times in 3 days
  Antibody-producing cells in spleen (% of control): 96 ± 20.0%
antibody-producing cells; totally irradiated (2 Gr.), a single use
  Antibody-producing cells in spleen (% of control): 230 ± 12.0%
antibody-producing cells; totally irradiated (2 Gr.), during 3 days, daily
  Antibody-producing cells in spleen (% of control): 129 ± 19%
antibody-producing cells; totally irradiated (2 Gr.), during 5 days, daily
  Antibody-producing cells in spleen (% of control): 181 ± 11.3%
antibody-producing cells; totally irradiated tumor-carriers
  immunopotentiating effect on totally irradiated tumor-carrier animals: pronounced immunopotentiating effect
antibody-producing cells; totally irradiated tumor-carriers (2 Gr.), 5 times in 3 days
  Antibody-producing cells in spleen (% of control): 250 ± 21.5%
antibody-producing cells; totally irradiated tumor-carriers (2 Gr.), during 3 days, daily
  Antibody-producing cells in spleen (% of control): 121 ± 25%
antibody-producing cells; totally irradiated tumor-carriers (2 Gr.), during 5 days, daily
  Antibody-producing cells in spleen (% of control): 128 ± 28.5%
antibody-producing cells; tumor-carriers, 5 times in 3 days
  Antibody-producing cells in spleen (% of control): 110 ± 11.0%
antibody-producing cells; tumor-carriers, a single use
  Antibody-producing cells in spleen (% of control): 211 ± 10.0%
antibody-producing cells; tumor-carriers, during 3 days, daily
  Antibody-producing cells in spleen (% of control): 99 ± 19%
Stem cells; 1.25 × 10^6 lymphocytes
  The counts of spleen endocolonies (M ± m): 2.5 ± 0.4
Stem cells; 2.5 × 10^6 lymphocytes
  The counts of spleen endocolonies (M ± m): 1.6 ± 0.2
Stem cells; 5.0 × 10^6 lymphocytes
  The counts of spleen endocolonies (M ± m): 0.3 ± 0.1
Stem cells; preparation 100 mg per 1 kg orally, levamisole 5 mg per 1 kg, hydrochloride monohydrate
  effect on yield of spleen colonies under graft versus host conditions: reduces both observed deviations as compared to control values if the concentration of introduced cells is not the highest; also recorded: normalizes the proliferative activity of target cells and their ability of producing a vital colony
[16]
  effect on a thermal skin lesion: exert a thermoprotective action and reduce a thermal skin lesion
lymphocytes; [26]
  bonding receptors with the outer lymphocyte membrane: leads to changes in bonding receptors with the outer lymphocyte membrane
  counts of T-populations: fails to change the counts of T-populations
lymphocytes; time of observation
  persistence of changes in bonding receptors: 14 days
lymphocytes; vaccination 24 hours after administering
  effect of vaccination on the nature of changes of bonding receptors: no effect on the nature of changes of bonding receptors
[17]
  alternations in parenchymatous organs: may cause in animals the development of non-specific degenerative alternations in parenchymatous organs
[18]
  toxicity / tolerability in patients: non-toxic, is well tolerated by patients
[19]
  LD50: 340 mg/kg
